Test results taken from PMC9402538, “Rational design of a sensitivity-enhanced tracer for discovering efficient APC–Asef inhibitors” (Nature Communications, 2022).
Where a chain is given by its changes, count along the chain named. “And” between values parts separate entries of the source, which are not always exact repeats. Equal values may be shown once. “Also recorded” adds a separate entry of the source. Where a SMILES comes first, the peptide text is derived from it. The star is where a group is joined. Benzoyl(4-OMe) = COc1ccc(C(=O)*)cc1

Tests used:
APC N641A = biological target: T1, APC N641A (Homo sapiens, UniProt P25054, N641A); test: ITC assay, APC N641A mutant; format: binding
T1 sequence (P25054 303-739 N641A): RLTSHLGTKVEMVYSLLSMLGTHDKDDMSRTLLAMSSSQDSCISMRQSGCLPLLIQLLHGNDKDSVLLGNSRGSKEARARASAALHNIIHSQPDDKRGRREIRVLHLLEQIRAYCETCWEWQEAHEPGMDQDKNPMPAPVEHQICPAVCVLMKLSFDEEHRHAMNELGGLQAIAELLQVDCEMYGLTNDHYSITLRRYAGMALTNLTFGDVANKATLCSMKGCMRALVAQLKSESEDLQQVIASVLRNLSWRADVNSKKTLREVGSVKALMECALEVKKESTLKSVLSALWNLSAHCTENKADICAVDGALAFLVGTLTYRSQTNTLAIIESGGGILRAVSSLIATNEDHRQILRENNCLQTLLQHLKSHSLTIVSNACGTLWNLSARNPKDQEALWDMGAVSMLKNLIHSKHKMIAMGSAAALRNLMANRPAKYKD
Method: (§1) ITC experiments were performed using a MicroCal ITC200 calorimeter (Malvern Panalytical Ltd.). APC protein and peptide inhibitors were diluted with buffer containing 50 mM HEPES pH 7.5, 300 mM NaCl and 1 mM EDTA. The cells were loaded with APC proteins at 10–20 μM. All injections were performed using an initial injection of 0.2 μL followed by 19 injections of 2 μL at 100–200 μM. All measurements were carried out at 30 °C. The data were analyzed using a single-site binding model within MicroCal ITC200 analysis software to generate the stoichiometry (N), enthalpy changes (ΔH), entropy changes (ΔS), and the association constant (K) of binding. The changes in free energy (ΔG) were calculated (ΔG = ΔH-TΔS).

APC W593A, N641A = biological target: T2, APC W593A, N641A (Homo sapiens, UniProt P25054, N641A/W593A); test: ITC assay, APC W593A, N641A double mutant; format: binding
T2 sequence (P25054 303-739 W593A/N641A): T1 sequence (P25054 303-739 N641A) with W291A
Method: as §1

SW480 cells [1] = test: Wound-healing migration assay, SW480; format: cell-based
Method: Cells were seeded in 12-well plates at a density of 4 × 10^5 cells per well and grown until 90% confluence in DMEM supplemented with 10% FBS. The monolayers were scratched with a sterile pipette tip (QSP; T104TLS-Q). The cells were washed with 1× PBS and then cultured in culture medium containing 1% FBS and peptides or peptidomimetics. The corresponding photos were captured at the time of scratching and after 24–72 h.

SW480 cells [2] = test: Transwell migration assay, SW480; format: cell-based
Method: Cells were serum-starved for 8 h and then digested and resuspended in serum-free medium. […] The lower chambers were filled with 600 μL of complete medium. […] After 48 h, the Transwell inserts were washed twice with 1× PBS. The cells in the upper chambers of the Transwell inserts were gently removed using cotton-tipped applicators. The cells on the lower surface of the membrane were fixed with methanol and then stained with crystal violet for 10 min. The Transwell inserts were washed with distilled water to remove the excess crystal violet and then dried. The stained cells from different areas were imaged using light microscopy and counted using ImageJ (NIH).

APC W593A = biological target: T3, APC W593A (Homo sapiens, UniProt P25054, W593A); test: ITC assay, APC W593A mutant; format: binding
T3 sequence (P25054 303-739 W593A): T1 sequence (P25054 303-739 N641A) with W291A, A339N
Method: as §1

With `COc1ccc(C(=O)N[C@@H](C)C(=O)NCC(=O)N[C@@H](CCC(=O)O)C(=O)N[C@@H](CO)C(=O)N[C@@H](CC(C)C)C(=O)N[C@@H](Cc2ccc(O)cc2)C(=O)N[C@@H](CCC(=O)O)C(N)=O)cc1` [MAI-516] ({Benzoyl(4-OMe)}-AGESLYE-NH2) the “reduction of binding affinity vs APC WT” value (APC N641A) was about 2 fold, the “-TΔS” value (APC N641A; 30 °C) was 22.8 kJ/mol and the L/P ratio (APC N641A; 30 °C) was 0.88. For the same compound, the ΔG (APC N641A; 30 °C) was -46.0 kJ/mol, the Kd (APC N641A; ITC, 30 °C) was 0.012 µM and the “reduction of binding affinity vs APC WT” value (APC W593A, N641A) was 200 fold. The “-TΔS” value (APC W593A, N641A; 30 °C) was 20.5 kJ/mol, the L/P ratio (APC W593A, N641A; 30 °C) was 0.77 and the ΔG (APC W593A, N641A; 30 °C) was -35.3 kJ/mol. For the same compound, the ΔH (APC W593A, N641A; 30 °C) was -55.8 kJ/mol, the Kd (APC W593A, N641A; ITC, 30 °C) was 0.86 µM and the “Relative migration ability (single replicates)” value (SW480 cells [1]; FigS10c, relative to DMSO) was 0.86 and 1.12 and 0.84. The “Relative migration ability, mean” value (SW480 cells [1]; FigS10c, relative to DMSO) was 0.94, the “cell migration (wound healing)” value (SW480 cells [1]; SW480, MAI-516 50 μM) was “dose not inhibit the migration; also recorded: no apparent impact” and the “Relative migration ability (single replicates)” value (SW480 cells [2]; FigS10e, relative to DMSO) was 1.11 and 1.06 and 0.96. The “Relative migration ability, mean” value (SW480 cells [2]; FigS10e, relative to DMSO) was 1.04, the “cell migration (transwell)” value (SW480 cells [2]; SW480, MAI-516 50 μM, 48 h) was “dose not inhibit the migration; also recorded: no apparent impact” and the “reduction of binding affinity vs APC WT” value (APC W593A) was “approximately 100 fold”. The “-TΔS” value (APC W593A; 30 °C) was 11.0 kJ/mol, the L/P ratio (APC W593A; 30 °C) was 0.92 and the ΔG (APC W593A; 30 °C) was -37.1 kJ/mol. For the same compound, the ΔH (APC W593A; 30 °C) was -48.1 kJ/mol and the Kd (APC W593A; ITC, 30 °C) was 0.4 µM.
